Key:
[1] = test system: Mouse-derived myoblast line C2C12 cell; test: Cell differentiation promoting activity in myoblast (creatine kinase activity); assay type: cell-based; conditions: 48 h, 1 μM compound, 2 days in differentiation medium, CK activity without compound = 100%, read-out: creatinine kinase activating action (%)
Description: • (1) Mouse-derived myoblast line C2C12 cell (Dainippon Pharmaceutical Co., Ltd.) was subcultured in a high glucose Eagle's modified Dulbecco's medium (GIBCO) containing 10% calf fetal bovine serum (GIBCO), 100 unit/mL penicillin and 100 μg/mL streptomycin (hereinafter to be referred to as a growth medium), plated at 5000 cells/cm^2 and cultured at 37° C., under 5% CO2. • (2) When the cells reached subconfluence, the medium was exchanged with a high glucose Eagle's modified Dulbecco's medium (GIBCO) containing 2% horse serum (GIBCO) and penicillin, streptomycin and a test compound (hereinafter to be referred to as a differentiation medium), and the cells were cultured for 2 days. To the control group was added DMSO solution instead of the test compound. • (3) The cells were washed with PBS, 0.5% NP-40 solution was added thereto, and the cells were lysed by freeze-thawing. The cell extract was centrifuged, and the creatine kinase activity in the supernatant was measured as an index of muscle differentiation. The creatine kinase activity was measured using CPKII Test Wako (Wako Pure Chemical Industries, Ltd.) according to the manual of the kit. The tests using the compounds of Example 7 to Example 14 were corrected based on the total protein amount measured using CA Protein Assay Kit (Thermo Scientific).
The numerical values in Table 3 show CK activity of the compound addition group with the CK activity without addition of the compound as 100%, and 1 μM of the compound was added for the measurement.

[2] = test system: NF-kB; test: NF-kB activation suppressive action in muscle cell (luciferase reporter, TNF-α induced); assay type: cell-based, mouse; conditions: TNF-α 10 ng/mL, activity without TNF-α = 1, n=8
Description: • (1) C2C12 cells introduced with NF-kB reporter plasmid (C2C12/NF-kB-luc, Panomics) was plated at 20000 cells/cm^2, 100 μg/ml hygromycin was added thereto, and the cells were cultured in a growth medium in the same manner as in Example 1. • (2) The cells were cultured in a differentiation medium containing the compound of Example 1, Example 8, Example 9, Example 10 or Example 11 for 1 hr, TNF-α was added thereto such that the concentration is 10 ng/mL, and the cells were cultured for 4 hr. • (3) The luciferase activity in the medium was measured using a Stedy-Glo luciferase assay system (Promega). The NF-kB activity was evaluated by measuring the luciferase activity.
The data in Table 6 to Table 10 show mean±standard deviation at n=8 (n is the number of samples).

[3] = test system: differentiated C2C12 muscle cell; test: Sugar metabolism promoting activity in muscle cell (lactic acid production); assay type: cell-based, mouse; conditions: C2C12 myotube, 1 μM compound, 2 days; lactic acid concentration without compound = 100%
Description: • (1) In the same manner as in Experimental Example 1, C2C12 cell was cultured in a growth medium. When the cells reached subconfluence, the medium was exchanged with a differentiation medium, and the cells were cultured for 3 to 4 days while exchanging the medium every 2 or 3 days until the cells differentiated to form a myotube. • (2) After confirmation of myotube formation under a microscope, the compound (1 μM) was added to a differentiation medium and cultured for 2 days. The cells were washed with Krebs-Ringer HEPES phosphate buffer (10 mM HEPES, pH 7.4, 131 mM NaCl, 4.7 mM KCl, 2.5 mM CaCl2-2H2O, 1.2 mM MgSO4-7H2O, 1.2 mM KH2PO4), the medium was exchanged with Krebs-Ringer HEPES phosphate buffer containing 5 mM glucose, 0.2% fatty acid-free bovine serum albumin, and the cells were cultured at 37° C. for 4 hr. • (3) The lactic acid concentration of the culture supernatant was measured using Detarminer LA kit (Kyowa Medex Co., Ltd.).
The numerical values in Table 4 show the lactic acid concentration of the compound addition group with the lactic acid concentration without addition of the compound as 100%.

[4] = test system: 3T3-L1 cells; test: Adipocyte differentiation suppressive action (fat droplet quantification); assay type: cell-based
Description: 3T3-L1 cells (ATCC) were cultured in a growth medium until confluence. 1 μM dexamethasone, 0.5 mM 3-isobutyl-1-methylxanthine and 5 μg/mL insulin were added to the medium, and the cells were cultured for 3 days. The medium was exchanged with a growth medium containing 4 μg/mL insulin and the cells were cultured for 3 more days. When the compound (1 μM) was to be added, it was added after the cells reached confluence, and the cells were cultured for 6 days. After completion of the culture period, the fat droplet formed was quantified using Adipogenesis Assay Kit (CHEMICON). The numerical values in Table 12 show the relative value when without addition of the compound as 100% (n is the number of samples).

[5] = Anti-diabetes action in KKA^y mouse (glycohemoglobin); assay type: in vivo, female KKA^y mouse; conditions: 2 weeks, variation from value before administration, n=6
Description: Female KKA^y mice (12-13 week-old, CLEA Japan, Inc.) were bred allowing free ingestion of both feed and water. The mice were acclimation bred with powder CE-2 (CLEA Japan, Inc.) from 2 weeks before administration of the test compound. The body weight, blood glycohemoglobin % (GHb %) value, plasma glucose, triglyceride and total cholesterol concentration were measured, and the mice were divided into 3 groups or 5 groups (6 mice/group) such that those measurement values are uniform at the start of the administration. The compound was administered by mixing (0.01-0.03%) in the feed for 2 weeks. GHb % was measured on the last day. GHb % was measured using Tosoh Corporation automatic glycohemoglobin analyzer (HLC-723GHbV Alc2.2). The numerical values in Table 11 show the variation from the value before administration to the measured value after administration in mean±standard deviation at n=6 (n is the number of mice).

SMILES | activity at 1 µM [1] [%] | NF-κB activity (multiple) ([2]; 0.001 μM compound) | NF-κB activity (multiple) ([2]; 0.003 μM compound) | NF-κB activity (multiple) ([2]; 0.01 μM compound) | NF-κB activity (multiple) ([2]; 0.03 μM compound) | NF-κB activity (multiple) ([2]; 0.1 μM compound) | NF-κB activity (multiple) ([2]; 0.3 μM compound) | NF-κB activity (multiple) ([2]; 1 μM compound) | NF-κB activity (multiple) ([2]; 3 μM compound) | NF-κB activity (multiple) ([2]; 10 μM compound) | lactic acid production promoting action (%) [3] [%] | further results
O=C(/C=C/c1cnccc1-c1ccc(F)cc1)Nc1ccc(OCc2nnco2)cc1 [Example 10, (2E)-3-[4-(4-fluorophenyl)pyridin-3-yl]-N-[4-(1,3,4-oxadiazol-2-ylmethoxy)phenyl]prop-2-enamide] | 164 | 10.0 | 10.2 | 10.5 | 10.5 | 9.6 | 7.8 | 7.5 | 6.9 | 6.2 |  | 
COc1ccc(-c2ccncc2/C=C/C(=O)Nc2ccc(CCc3nnco3)cc2)cc1 [Example 2, (2E)-3-[4-(4-methoxyphenyl)pyridin-3-yl]-N-{4-[2-(1,3,4-oxadiazol-2-yl)ethyl]phenyl}prop-2-enamide] | 211 |  |  |  |  |  |  |  |  |  | 168.3 | lipid accumulation amount in the cell in fat differentiation, result in words ([4]; 1 μM): decrease the lipid accumulation amount in the cell; lipid accumulation (%) ([4]; 1 μM compound, 6 days, without compound = 100%, n=2): 45%; GHb change (%) ([5]; 0.02% mixed with feed): −1%
COc1ccc(-c2ncncc2/C=C/C(=O)Nc2ccc(CCc3nnco3)cc2)cc1 [Example 5, (2E)-3-[4-(4-methoxyphenyl)pyrimidin-5-yl]-N-{4-[2-(1,3,4-oxadiazol-2-yl)ethyl]phenyl}prop-2-enamide] | 290 |  |  |  |  |  |  |  |  |  | 233.3 | GHb change (%) ([5]; 0.03% mixed with feed): −0.3%
CCOP(=O)(Cc1ccc(NC(=O)/C=C/c2cnccc2-c2ccc(F)cc2)cc1)OCC [Example 13, diethyl [4-({(2E)-3-[4-(4-fluorophenyl)pyridin-3-yl]prop-2-enoyl}amino)benzyl]phosphonate] | 184 |  |  |  |  |  |  |  |  |  |  | 
COP(=O)(Cc1ccc(NC(=O)/C=C/c2cnccc2-c2ccccc2)cc1)OC [Example 12, dimethyl (4-{[(2E)-3-(4-phenylpyridin-3-yl)prop-2-enoyl]amino}benzyl)phosphonate] | 189 |  |  |  |  |  |  |  |  |  |  | 
COP(=O)(Cc1ccc(NC(=O)/C=C/c2cnccc2-c2ccc(F)cc2)cc1)OC [Example 14, dimethyl [4-({(2E)-3-[4-(4-fluorophenyl)pyridin-3-yl]prop-2-enoyl}amino)benzyl]phosphonate] | 205 |  |  |  |  |  |  |  |  |  |  | 
O=C(/C=C/c1cncnc1-c1ccc(F)cc1)Nc1ccc(CCc2nnco2)cc1 [Example 4, (2E)-3-[4-(4-fluorophenyl)pyrimidin-5-yl]-N-{4-[2-(1,3,4-oxadiazol-2-yl)ethyl]phenyl}prop-2-enamide] | 249 |  |  |  |  |  |  |  |  |  | 222.9 | GHb change (%) ([5]; 0.03% mixed with feed): −0.7%
O=C(/C=C/c1cnccc1-c1ccc(F)cc1)Nc1ccc(CN2CCOCC2)cc1 [Example 6, (2E)-3-[4-(4-fluorophenyl)pyridin-3-yl]-N-[4-(morpholin-4-ylmethyl)phenyl]prop-2-enamide] | 299 |  |  |  |  |  |  |  |  |  | 216.7 | GHb change (%) ([5]; 0.02% mixed with feed): −1.2%
Cc1nnc(CCc2ccc(NC(=O)/C=C/c3cnccc3-c3ccc(F)cc3)cc2)o1 [Example 3, (2E)-3-[4-(4-fluorophenyl)pyridin-3-yl]-N-{4-[2-(5-methyl-1,3,4-oxadiazol-2-yl)ethyl]phenyl}prop-2-enamide] | 249 |  |  |  |  |  |  |  |  |  | 175.4 | GHb change (%) ([5]; 0.03% mixed with feed): −0.3%
CS(=O)(=O)Cc1ccc(NC(=O)/C=C/c2cnccc2-c2ccc(F)cc2)cc1 [Example 7, (2E)-3-[4-(4-fluorophenyl)pyridin-3-yl]-N-{4-[(methylsulfonyl)methyl]phenyl}prop-2-enamide] | 197 |  |  |  |  |  |  |  |  |  |  | 
CCOP(=O)(Cc1ccc(NC(=O)/C=C/c2cnccc2-c2ccccc2)cc1)OCC [Example 11, diethyl (4-{[(2E)-3-(4-phenylpyridin-3-yl)prop-2-enoyl]amino}benzyl)phosphonate] | 189 | 9.7 | 10.8 | 10.5 | 10.6 | 10.6 | 9.0 | 7.3 | 7.0 | 5.2 |  | 
O=C(/C=C/c1cnccc1-c1ccc(F)cc1)Nc1ccc(Cn2ccnc2)cc1 [Example 9, (2E)-3-[4-(4-fluorophenyl)pyridin-3-yl]-N-[4-(1H-imidazol-1-ylmethyl)phenyl]prop-2-enamide] | 208 | 11.8 | 13.0 | 12.1 | 13.1 | 13.0 | 10.2 | 8.4 | 7.6 | 6.9 |  | 
O=C(/C=C/c1cnccc1-c1ccc(F)cc1)Nc1ccc(Cn2cnc3ccccc32)cc1 [Example 8, (2E)-N-[4-(1H-benzimidazol-1-ylmethyl)phenyl]-3-[4-(4-fluorophenyl)pyridin-3-yl]prop-2-enamide] | 197 | 9.4 | 9.7 | 10.8 | 10.6 | 9.4 | 7.6 | 7.1 | 6.6 | 6.1 |  | 

— patent US8937055B2, “Heterocyclic ring compound having muscle cell or adipocyte differentiation regulating action” (Takeda Pharmaceutical Company Limited, priority 2010, dated 2015)
